Measurements: US20260193268A1, “TRICYCLIC PI3Ka INHIBITOR, PREPARATION METHOD THEREFOR, AND PHARMACEUTICAL USE THEREOF” (WIGEN BIOMEDICINE TECHNOLOGY (SHANGHAI) CO., LTD., priority 2022, published 2026)
pIC50: −log10 of the molar value. Like-named read-outs stand apart in the source and are kept apart here.

Key:
[1] = tested on: MCF-7 cells (with PI3Kα E545K mutation); test: In vitro inhibition of MCF-7 cell proliferation (CellTiter-Lumi); assay type: cell-based
Method in brief: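 Growth IC50 derived from ATP luminescence (CellTiter-Lumi) after 144 h exposure of MCF-7 cells carrying PI3Kα E545K, plated 2000 cells/well and dosed with serial dilutions one day after seeding.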

[2] = tested on: HCC1954 cells (with PI3Kα H1047R mutation); test: In vitro inhibition of HCC1954 cell proliferation (CellTiter-Lumi); assay type: cell-based; details: HCC1954 cells, 144 h, CellTiter-Lumi
Procedure: Assay for In Vitro Inhibition of HCC1954 Cell Proliferation by Compounds of the Present Disclosure
The growth of the cells was evaluated, and the IC50 for the inhibition of cell growth by the compounds was calculated.

[3] = Homo sapiens, MCF7, 144 h, class symbols, read-out: Inhibitory activity against MCF-7 cells (IC50), class symbols
[4] = Homo sapiens, HCC1954, 144 h, class symbols, read-out: Inhibitory activity against HCC1954 cells (IC50), class symbols
[5] = Homo sapiens, MCF7, 144 h, numeric values, read-out: Inhibitory activity against MCF-7 cells (IC50)
[6] = Homo sapiens, HCC1954, 144 h, numeric values, read-out: Inhibitory activity against HCC1954 cells (IC50)

Row | SMILES | pIC50 [1, 3] | pIC50 [2, 4] | pIC50 [1, 5] | pIC50 [2, 6] | further results
1 | CC(C)(C=C(C#N)C(=O)Nc1ccc(N2CC(N3CCN(c4ccc5c(c4)-c4nc(N6C(=O)OC[C@H]6C(F)F)cn4CCO5)CC3)C2)cc1)OCOP(=O)(OCOC(=O)C(C)(C)C)OCOC(=O)C(C)(C)C [Compound 343] | > 7.30 | > 7.30 |  |  | 
2 | Cc1c(N2C(=O)OC[C@H]2C(F)F)nc2n1CCOc1ccc(N3CCN(C4CN(c5ccc(NC(=O)C(C#N)=CC(C)(C)C)cc5)C4)CC3)cc1-2 [Compound 323] | > 7.30 | > 7.30 |  |  | 
3 | C=CC(=O)Nc1ccc(CN2C[C@@H]3CN(c4ccc5c(c4)-c4nc(N6C(=O)OC[C@H]6C(F)F)cn4CCO5)C[C@@H]3C2)cc1 [Compound 41] |  |  | 7.40 | 6.72 | 
4 | C=CC(=O)N(C)c1ccc(N2CC(N3CCN(c4ccc5c(c4)-c4nc(N6C(=O)OC[C@H]6C(F)F)cn4CCO5)CC3)C2)cc1 [Compound 146] |  |  | 8.18 | 7.12 | 
5 | CC(C)(C=C(C#N)C(=O)Nc1ccc(N2CC(N3CCN(c4ccc5c(c4)-c4nc(N6C(=O)OC[C@H]6C(F)F)cn4CCO5)CC3)C2)cc1Cl)NC1COC1 [Compound 362] | > 7.30 | > 7.30 |  |  | 
6 | C=CC(=O)N1CCC(CN2CCC(N3CCN(c4ccc5c(c4)-c4nc(N6C(=O)OC[C@H]6C(F)F)cn4CCO5)CC3)CC2)CC1 [Compound 9] |  |  | 7.12 | < 6.00 | 
7 | CC(C)(C)C=C(C#N)C(=O)Nc1ccc(N2CC(N3CCN(c4ccc5c(c4)-c4nc(N6C(=O)OC[C@H]6C(F)F)cn4CCO5)CC3)C2)cc1 [Compound 136] |  |  | 7.54 | 7.15 | 
8 | CNC1(C=C(C#N)C(=O)Nc2ccc(N3CC(N4CCN(c5ccc6c(c5)-c5nc(N7C(=O)OC[C@H]7C(F)F)cn5CCO6)CC4)C3)nc2)CC1 [Compound 255] | > 7.30 | > 7.30 |  |  | 
9 | CNC(C)(C)C=C(C#N)C(=O)Nc1ccc(N2CC(N3CCN(c4ccc5c(c4)-c4nc(N6C(=O)OC[C@H]6C(F)F)cn4CCO5)CC3)C2)c(F)c1 [Compound 225] | > 7.30 | > 7.30 |  |  | 
10 | CC(=O)NC(C)(C)C=C(C#N)C(=O)Nc1ccc(N2CC(N3CCN(c4ccc5c(c4)-c4nc(N6C(=O)OC[C@H]6C(F)F)cn4CCO5)CC3)C2)nc1 [Compound 348] | > 7.30 | > 7.30 |  |  | 
11 | CC(=O)NC(C)(C)C=C(C#N)C(=O)Nc1ccc(N2CC(N3CCN(c4ccc5c(c4)-c4nc(N6C(=O)OC[C@H]6C(F)F)cn4CCO5)CC3)C2)cc1Cl [Compound 366] | > 7.30 | > 7.30 |  |  | 
12 | CC(=O)NC(C)(C)C=C(C#N)C(=O)Nc1ccc(N2CC(N3CCN(c4ccc5c(c4)-c4nc(N6C(=O)OC[C@H]6C(F)F)cn4CCO5)CC3)C2)c(Cl)c1 [Compound 357] | > 7.30 | > 7.30 |  |  | 
13 | COCCNC(C)(C)C=C(C#N)C(=O)Nc1ccc(N2CC(N3CCN(c4ccc5c(c4)-c4nc(N6C(=O)OC[C@H]6C(F)F)cn4CCO5)CC3)C2)c(F)c1 [Compound 232] | > 7.30 | > 7.30 |  |  | 
14 | CC(C)n1ncnc1-c1cn2c(n1)-c1cc(N3CCN(C4CN(c5ccc(NC(=O)C(C#N)=CC(C)(C)C)cn5)C4)CC3)ccc1OCC2 [Compound 371] | > 7.30 | > 7.30 |  |  | 
15 | CC(C)(N)C=C(C#N)C(=O)Nc1ccc(N2CC(N3CCN(c4ccc5c(c4)-c4nc(N6C(=O)OC[C@H]6C(F)F)cn4CCO5)CC3)C2)nc1 [Compound 242] | > 7.30 | > 7.30 |  |  | 
16 | C=CC(=O)Nc1cc(C)c(N2CC(N3CCN(c4ccc5c(c4)-c4nc(N6C(=O)OC[C@H]6C(F)F)cn4CCO5)CC3)C2)cn1 [Compound 140] |  |  | 9.52 | 8.22 | 
17 | C=CC(=O)N1CCC(N2CCC(N3CCN(c4ccc5c(c4)-c4nc(N6C(=O)OC[C@H]6C(F)F)cn4CCO5)CC3)CC2)CC1 [Compound 10] |  |  | 6.84 | < 6.00 | 
18 | C/C=C/C(=O)Nc1ccc(N2CC(N3CCN(c4ccc5c(c4)-c4nc(N6C(=O)OC[C@H]6C(F)F)cn4CCO5)CC3)C2)cc1 [Compound 101] |  |  | 7.42 | 7.08 | 
19 | CC=C(C#N)C(=O)Nc1cnc(N2CC(N3CCN(c4ccc5c(c4)-c4nc(N6C(=O)OC[C@H]6C(F)F)cn4CCO5)CC3)C2)nc1 [Compound 272] | > 7.30 | > 7.30 |  |  | 
20 | CC(C)(C=C(C#N)C(=O)Nc1ccc(N2CC(N3CCN(c4ccc5c(c4)-c4nc(N6C(=O)OC[C@H]6C(F)F)cn4CCO5)CC3)C2)c(F)c1)N1CCC1 [Compound 229] | > 7.30 | > 7.30 |  |  | 
21 | CC(C)(C=C(C#N)C(=O)Nc1ccc(N2CC(N3CCN(c4ccc5c(c4)-c4nc(N6C(=O)OC[C@H]6C(F)F)cn4CCO5)CC3)C2)nc1)N1CCC1 [Compound 247] | > 7.30 | > 7.30 |  |  | 
22 | C=CC(=O)Nc1ccc(N2CC(N3CCN(c4ccc5c(c4)-c4nc(N6C(=O)OC[C@H]6C(F)F)cn4CCO5)CC3)C2)cc1C(F)(F)F [Compound 142] |  |  | 9.30 | 8.08 | 

Row | SMILES | pIC50 [1, 3] | pIC50 [2, 4] | pIC50 [1, 5] | pIC50 [2, 6] | further results
23 | C=CC(=O)Nc1ccc(N2CC3(CCN(c4ccc5c(c4)-c4nc(N6C(=O)OC[C@H]6C(F)F)cn4CCO5)CC3)C2)cc1 [Compound 18] |  |  | 7.60 | 7.17 | 
24 | C=CC(=O)Nc1ccc(N2CC(CN3CC4(C3)CN(c3ccc5c(c3)-c3nc(N6C(=O)OC[C@H]6C(F)F)cn3CCO5)C4)C2)cc1 [Compound 25] |  |  | 6.41 | < 6.00 | 
25 | CN(C)C/C=C/C(=O)Nc1ccc(N2CC(N3CCN(c4ccc5c(c4)-c4nc(N6C(=O)OC[C@H]6C(F)F)cn4CCO5)CC3)C2)c(Cl)c1 [Compound 356] | > 7.30 | > 7.30 |  |  | 
26 | C=CC(=O)N1CC[C@H](C(=O)NCC(=O)N2CCN(c3ccc4c(c3)-c3nc(N5C(=O)OC[C@H]5C(F)F)cn3CCO4)CC2)C1 [Compound 3] |  |  | 7.21 | 6.55 | 
27 | C=CC(=O)Nc1ccc(N2CC(N3CCC(c4ccc5c(c4)-c4nc(N6C(=O)OC[C@H]6C(F)F)cn4CCO5)CC3)C2)cc1 [Compound 104] |  |  | 8.34 | 7.19 | 
28 | CC(C)(C=C(C#N)C(=O)Nc1ccc(N2CC(N3CCN(c4ccc5c(c4)-c4nc(N6C(=O)OC[C@H]6C(F)F)cn4CCO5)CC3)C2)nc1)N1CC2(COC2)C1 [Compound 246] | > 7.30 | > 7.30 |  |  | 
29 | C=CC(=O)Nc1ccc(C2CN(CC#Cc3ccc4c(c3)-c3nc(N5C(=O)OC[C@H]5C(F)F)cn3CCO4)C2)cc1 [Compound 201] | > 7.30 | 7.00 to 7.30 |  |  | 
30 | CC(C)(C=C(C#N)C(=O)Nc1ccc(N2CC(N3CCN(c4ccc5c(c4)-c4nc(N6C(=O)OC[C@H]6C(F)F)cn4CCO5)CC3)C2)cc1)N1CC2(COC2)C1 [Compound 141] |  |  | 9.22 | 8.17 | 
31 | N#CC(=CC1(N)CCC1)C(=O)Nc1ccc(N2CC(N3CCN(c4ccc5c(c4)-c4nc(N6C(=O)OC[C@H]6C(F)F)cn4CCO5)CC3)C2)cc1 [Compound 391] | > 7.30 | > 7.30 |  |  | 
32 | CC(C)(C=C(C#N)C(=O)Nc1ccc(N2CC(N3CCN(c4ccc5c(c4)-c4nc(N6C(=O)OC[C@H]6C(F)F)cn4CCO5)CC3)C2)cc1)NC(=O)OC(C)(C)C [Compound 324B] |  |  |  |  | pIC50 ([1]; 144 h, numeric values, read-out: Inhibitory activity against MCF-7 cells (IC50)): 8.59; pIC50 ([2]; numeric values, read-out: Inhibitory activity against HCC1954 cells (IC50)): 8.21
33 | N#CC(=CC1CCCN1)C(=O)Nc1ccc(N2CC(N3CCN(c4ccc5c(c4)-c4nc(N6C(=O)OC[C@H]6C(F)F)cn4CCO5)CC3)C2)nc1 (stereo partly shown) [Compound 252] | > 7.30 | > 7.30 |  |  | 
34 | CC(C)(C=C(C#N)C(=O)Nc1ccc(N2CC(N3CCN(c4ccc5c(c4)-c4nc(N6C(=O)OC[C@H]6C(F)F)cn4CCO5)CC3)C2)c(F)c1)NC1(C)COC1 [Compound 384] | > 7.30 | > 7.30 |  |  | 
35 | C=CC(=O)Nc1ccc(N2CC(N3CCN(c4ccc5c(c4)-c4nc(N6C(=O)OC[C@H]6C(F)F)cn4CCO5)CC3)C2)nc1 [Compound 122] |  |  | 9.40 | 8.15 | 
36 | Cc1nc(-c2cn3c(n2)-c2cc(N4CCN(C5CN(c6ccc(NC(=O)C(C#N)=CC(C)(C)NC(=O)OC(C)(C)C)cc6F)C5)CC4)ccc2OCC3)n(C(C)C)n1 [Compound 374] | > 7.30 | > 7.30 |  |  | 
37 | CN(C)C/C=C/C(=O)Nc1cnc(N2CC(N3CCN(c4ccc5c(c4)-c4nc(N6C(=O)OC[C@H]6C(F)F)cn4CCO5)CC3)C2)nc1 [Compound 288] | > 7.30 | > 7.30 |  |  | 
38 | C=CC(=O)Nc1ccc(CN2CC3(CCN(c4ccc5c(c4)-c4nc(N6C(=O)OC[C@H]6C(F)F)cn4CCO5)CC3)C2)cc1 [Compound 43] |  |  | 7.72 | 6.74 | 
39 | C=CC(=O)Nc1cnc(N2CC(N3CCN(c4ccc5c(c4)-c4nc(N6C(=O)OC[C@H]6C(F)F)cn4CCO5)CC3)C2)nc1 [Compound 133] |  |  | 9.40 | 8.37 | 
40 | C=CC(=O)N1CCC(C2CN(c3ccc(-c4ccc5c(c4)-c4nc(N6C(=O)OC[C@H]6C(F)F)cn4CCO5)cc3)C2)CC1 [Compound 198] | 7.00 to 7.30 | 6.00 to 7.00 |  |  | 
41 | C=CC(=O)N1CCC(CN2CC3(CCN(c4ccc5c(c4)-c4nc(N6C(=O)OC[C@H]6C(F)F)cn4CCO5)CC3)C2)CC1 [Compound 24] |  |  | 5.95 | < 6.00 | 
42 | CC(C)(C)C=C(C#N)C(=O)Nc1ccc(N2CC(N3CCN(c4ccc5c(c4)-c4nc(N6C(=O)OC[C@H]6C(F)F)cn4CCO5)CC3)C2)cc1Cl [Compound 364] | > 7.30 | > 7.30 |  |  | 
43 | C=CC(=O)Nc1ccc(N2CC(N3CCN(c4ccc5c(c4)-c4nc(N6C(=O)OC[C@H]6C)cn4CCO5)CC3)C2)cc1 [Compound 131] |  |  | 7.82 | 7.08 | 
44 | C=CC(=O)Nc1ccc(N2CC(C#Cc3ccc4c(c3)-c3nc(N5C(=O)OC[C@H]5C(F)F)cn3CCO4)C2)cc1 [Compound 203] | > 7.30 | 7.00 to 7.30 |  |  | 
